In patent US20250011364A1, “TUMOR TISSUE-PENETRATING PEPTIDE, SPECIFICALLY BINDING TO NEUROPILIN 1, FOR DRUG DELIVERY TO TUMOR, AND USE THEREOF” (CELLICON LAB INC., priority 2022, published 2025):

Tests used:
[1] = system: AsPC-1 xenograft; test: Tumor tissue penetration of doxorubicin, confocal microscopy of tumor slides; type: in vivo, mice; settings: peptide 5 μM/kg iv, doxorubicin 10 mg/kg iv 10 minutes later, tumor extracted 24 hours later; vs doxorubicin only and doxorubicin + iRGD (FIG. 4)
Procedure: In order to examine the effect of the peptide of SEQ ID NO: 8 of the present invention on improving the tumor tissue-penetrating ability of a physiologically active substance, tumor-induced AsPC-1 xenograft mice were treated with only doxorubicin, doxorubicin and iRGD as a positive control, or with tumor tissue-penetrating peptide, and the effect was compared.
Specifically, iRGD or tumor tissue-penetrating peptide (5 μM/kg) was injected intravenously (iv) into AsPC-1 xenograft mice, doxorubicin (Dox; 10 mg/kg) was injected intravenously 10 minutes later, and then the tumor was extracted 24 hours later to construct paraffin slides. The slides were stained with anti-CD31-FITC (vascular endothelial cell marker), and Dox (red)/CD31 (FITC) was analyzed using a confocal microscope.

[2] = target: NRP-1 (Homo sapiens, UniProt O14786); test: Competitive ELISA assay, inhibition of VEGF 165 binding to NRP-1; settings: NRP-1 treated with peptide and VEGF, competitive ELISA (FIG. 6)
Text: Therefore, the tumor tissue-penetrating peptide is more likely to bind to NRP-1 competitively, and thus can interfere with neovascularization, and this means that the tumor tissue-penetrating peptide can suppress tumor growth (FIG. 6).

[3] = system: AsPC-1 xenograft; test: Tumor tissue penetration of FITC-albumin, confocal microscopy; type: in vivo, mice; settings: FITC-albumin iv in conjugation/combination with peptide vs singly, tumor extracted 1, 3 and 24 hours later (FIG. 5)
Procedure: In order to examine the effect of the peptide of SEQ ID NO: 8 of the present invention on improving the tumor tissue-penetrating ability of physiologically active substances, FITC-albumin was injected intravenously (iv) singly or in conjugation/combination with the tumor tissue-penetrating peptide (five minutes) into tumor-induced AsPC-1 xenograft mice, the tumor was extracted 1, 3, and 24 hours later, and analysis was performed using a confocal microscope (albumin molecular weight: about 70 kDa).

[4] = system: AsPC-1 cells; test: MTT assay: improvement of anticancer efficacy of doxorubicin; type: cell-based; settings: 48 hours, compared to the group treated with only doxorubicin (FIG. 1)
Procedure: In order to examine the function of the present invention as a tumor tissue-penetrating peptide, the effect of the present invention on improving the anticancer efficacy of doxorubicin was evaluated. Specifically, the effect of a tumor tissue-penetrating peptide consisting of any one amino acid sequence selected from SEQ ID NO: 5 to SEQ ID NO: 8 of the present invention and SEQ ID NO: 1 to SEQ ID NO: 4, derivatives thereof, on improving the anticancer efficacy of doxorubicin was evaluated.
Specifically, in order to evaluate the effect of improving anticancer efficacy, AsPC-1 cells were used to perform the MTT assay, and cell viability was analyzed and compared (FIG. 1).
Pancreatic cancer cells (AsPC-1) were cultured in 96-well plates at 2×10^5 cells/ml for 24 hours, then treated with samples at various concentrations, and cultured for another 48 hours. […] After 4 hours, the MTT solution was removed, DMSO was added to each well to dissolve formazan at 37° C. for 30 minutes, and then the absorbance was measured at 570 nm using a microplate reader (Molecular Devices Spectra MAX, Sunnyvale, CA, USA). In all experiments, the results were statistically processed by taking the average value for three wells for each concentration, and expressed as a relative viability (%) compared to that in the group treated with no sample.

Sequence of NRP-1 (O14786 22-923): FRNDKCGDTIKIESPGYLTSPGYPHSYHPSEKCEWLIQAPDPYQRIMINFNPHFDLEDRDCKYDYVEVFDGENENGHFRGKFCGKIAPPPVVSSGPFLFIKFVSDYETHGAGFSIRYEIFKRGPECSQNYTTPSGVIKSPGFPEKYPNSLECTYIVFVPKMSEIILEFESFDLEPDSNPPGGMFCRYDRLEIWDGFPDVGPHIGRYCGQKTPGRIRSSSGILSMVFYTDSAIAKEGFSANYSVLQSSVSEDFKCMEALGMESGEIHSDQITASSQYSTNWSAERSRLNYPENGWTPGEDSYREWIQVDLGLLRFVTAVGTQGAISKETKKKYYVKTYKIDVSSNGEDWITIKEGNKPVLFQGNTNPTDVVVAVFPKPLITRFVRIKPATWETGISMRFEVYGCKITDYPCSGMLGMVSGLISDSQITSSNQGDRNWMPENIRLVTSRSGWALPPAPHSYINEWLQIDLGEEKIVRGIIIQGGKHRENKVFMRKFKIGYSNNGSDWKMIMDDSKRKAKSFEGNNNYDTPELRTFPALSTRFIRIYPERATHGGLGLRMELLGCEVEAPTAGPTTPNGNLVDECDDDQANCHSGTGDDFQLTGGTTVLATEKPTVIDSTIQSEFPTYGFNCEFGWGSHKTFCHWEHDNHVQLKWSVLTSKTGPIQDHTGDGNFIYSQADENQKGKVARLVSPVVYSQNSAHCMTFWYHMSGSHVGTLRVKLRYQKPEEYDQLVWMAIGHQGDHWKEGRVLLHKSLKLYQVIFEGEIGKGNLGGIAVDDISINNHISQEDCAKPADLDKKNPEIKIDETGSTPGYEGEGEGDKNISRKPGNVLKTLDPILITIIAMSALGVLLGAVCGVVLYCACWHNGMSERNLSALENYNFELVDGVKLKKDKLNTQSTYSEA

H2N-[Arg-Lys-Leu-Phe-Arg-Lys-Ile-Leu-Lys-Tyr-Leu-Arg]-CO2H (RKLFRKILKYLR) [SEQ ID NO: 8, tumor tissue-penetrating peptide]
tumor tissue-penetrating ability of doxorubicin [1]: significantly superior
NRP-1 binding of VEGF165 [2]: decreases
tumor-penetrating ability of albumin [3]: increased
effect of improving anticancer efficacy of doxorubicin (cell viability) [4]: most effective
